Laboratory results as given in PubChem BioAssay (NCI).
Where “and” joins values, the source holds several entries; their conditions need not be identical. Identical values can stand only once.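 The compound was tested at five concentrations on cells cultured in 96-well plates, with a 48-hour exposure period. At the GI50, growth is halved. TGI denotes the concentration required for complete inhibition of growth.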

Columns and labels:
Assay in all cases: DTP human tumour cell line panel, 48 h
[1] = tested on: HCT-15 colon
[2] = tested on: HCC-2998 colon
[3] = tested on: HT29 colon
[4] = tested on: HOP-92 NSCLC
[5] = tested on: CAKI-1 renal
[6] = tested on: EKVX NSCLC
[7] = tested on: A498 renal
[8] = tested on: IGROV1 ovarian
[9] = tested on: SK-MEL-2 melanoma
[10] = tested on: HS 578T breast

In the case of `CC(C)c1ccc2c(c1)CCC1C2CCCC1(C)NCc1ccccc1` (stereo not given), the GI50 [1] is reported as 2.87 µM, the TGI [1] is reported as 9.05 µM and the GI50 [2] is reported as 0.608 µM. The TGI [2] was 2.01 µM, the GI50 [3] was 0.78 µM and the TGI [3] was 2.7 µM. The GI50 [4] was 1.95 µM, the TGI [4] was 4.13 µM and the GI50 [5] was 3.22 µM. It also gave a TGI [5] of 15.3 µM, a GI50 [6] of 10.7 µM and a TGI [6] of 24.6 µM. For the same compound, the GI50 [7] was 11.5 µM, the TGI [7] was 24.5 µM and the GI50 [8] was 6.43 µM. It also gave a TGI [8] of 20.7 µM, a GI50 [9] of 2.04 µM and a TGI [9] of 4.16 µM. The GI50 [10] was 4.99 µM and the TGI [10] was 23.7 µM.
`O=C1[C@H](Cc2ccc(O)cc2)N2C(=O)CCN(C(=O)NCc3ccccc3)[C@H]2CN1Cc1cccc2ccccc12` gave a GI50 [1] of 15.5 µM, a TGI [1] of over 89.8 µM and a GI50 [2] of 3.51 µM. For the same compound, the TGI [2] was 23.2 µM, the GI50 [3] was 2.85 µM and the TGI [3] was 19.3 µM. It also gave a GI50 [4] of 0.418 µM, a TGI [4] of 2.4 µM and a GI50 [5] of 14.2 µM. It also gave a TGI [5] of over 80.1 µM, a GI50 [6] of 3.81 µM and a TGI [6] of over 100 µM. It also gave a GI50 [7] of 1.38 µM, a TGI [7] of 6.75 µM and a GI50 [8] of 1.42 µM. For the same compound, the TGI [8] was 10.5 µM, the GI50 [9] was 2.64 µM and the TGI [9] was 9.18 µM. The GI50 [10] was 0.851 µM and the TGI [10] was 7.24 µM.
`CNS(=O)(=O)Nc1nccc(Cc2c(C)c3ccc(Oc4ncccn4)cc3oc2=O)c1F` was tested, and the GI50 [1] was over 25.7 µM, the TGI [1] was over 100 µM and the GI50 [2] was 0.0209 µM and 0.00869 µM. The TGI [2] was over 10 µM, the GI50 [3] was 0.0278 µM and 0.0231 µM and the TGI [3] was over 100 µM. The GI50 [4] was < 0.0152 µM and 0.0613 µM, the TGI [4] was 0.406 µM and 1.93 µM and the GI50 [5] was 1.34 µM. For the same compound, the TGI [5] was over 100 µM, the GI50 [6] was 0.438 µM and 0.351 µM and the TGI [6] was over 100 µM. For the same compound, the GI50 [7] was 0.0424 µM and 0.0459 µM, the TGI [7] was 1.38 µM and 0.531 µM and the GI50 [8] was 0.938 µM and 0.0955 µM. For the same compound, the TGI [8] was over 100 µM, the GI50 [9] was < 0.01 µM and 0.00879 µM and the TGI [9] was over 100 µM. It also gave a GI50 [10] of over 100 µM and a TGI [10] of over 100 µM.
Work on `CN(C)c1ccc(/C=N/N=C(\C#N)[S][Sn]([Cl])([c]2ccccc2)[c]2ccccc2)cc1` yielded a GI50 [1] of 1.26 µM, a TGI [1] of 2.73 µM and a GI50 [2] of 1.28 µM. For the same compound, the TGI [2] was 2.61 µM, the GI50 [3] was 2.08 µM and the TGI [3] was 4.18 µM. For the same compound, the GI50 [4] was 1.42 µM, the TGI [4] was 2.87 µM and the GI50 [5] was 1.27 µM. For the same compound, the TGI [5] was 2.56 µM, the GI50 [6] was 1.67 µM and the TGI [6] was 4.12 µM. It also gave a GI50 [7] of 1.96 µM, a TGI [7] of 3.71 µM and a GI50 [8] of 1.99 µM. For the same compound, the TGI [8] was 4.63 µM, the GI50 [9] was 1.74 µM and the TGI [9] was 3.43 µM. For the same compound, the GI50 [10] was 2.7 µM and the TGI [10] was 9.19 µM.
`N#CC1=C(N)Oc2c(ccc3ccccc23)C1c1cc2ccccc2n2nnnc12` (stereo not given) gave a GI50 [1] of 0.524 µM, a TGI [1] of over 100 µM and a GI50 [2] of 2.36 µM. The TGI [2] was over 100 µM, the GI50 [3] was 3 µM and the TGI [3] was over 100 µM. The GI50 [4] was 0.49 µM, the TGI [4] was 7.47 µM and the GI50 [5] was 5.74 µM. It also gave a TGI [5] of over 100 µM, a GI50 [6] of 5.8 µM and a TGI [6] of over 100 µM. For the same compound, the GI50 [7] was 0.783 µM, the TGI [7] was over 100 µM and the GI50 [8] was 0.82 µM. For the same compound, the TGI [8] was over 100 µM, the GI50 [9] was 0.616 µM and the TGI [9] was 6.84 µM. It also gave a GI50 [10] of 1.51 µM and a TGI [10] of 49.3 µM.
`C=C(C)c1nc(Oc2ccccc2)nc(Oc2ccccc2)n1` showed a TGI [1] of 7.43 µM, a TGI [2] of 8.18 µM and a TGI [3] of 12.9 µM. It also gave a TGI [4] of 10.8 µM, a TGI [5] of 4.44 µM and a TGI [6] of 32.8 µM. The TGI [7] was 31.1 µM, the TGI [8] was 22.4 µM and the TGI [9] was 9.51 µM. For the same compound, the TGI [10] was 44.1 µM.
`Oc1c(Br)cc(Cl)cc1C(c1cc(Cl)cc(Br)c1O)C(Cl)(Cl)Cl` gave a GI50 [1] of 1.39 µM, a TGI [1] of 9.06 µM and a GI50 [2] of 2.63 µM. The TGI [2] was 8.48 µM, the GI50 [3] was 3.26 µM and the TGI [3] was 10.6 µM. It also gave a GI50 [4] of 0.457 µM, a TGI [4] of 2.48 µM and a GI50 [5] of 2.09 µM. For the same compound, the TGI [5] was 8.73 µM, the GI50 [6] was 2.72 µM and the TGI [6] was 11.3 µM. It also gave a GI50 [7] of 1.69 µM, a TGI [7] of 8.24 µM and a GI50 [8] of 3.95 µM. It also gave a TGI [8] of 16.7 µM, a GI50 [9] of 2.31 µM and a TGI [9] of 5.08 µM. For the same compound, the GI50 [10] was 2.46 µM and the TGI [10] was over 21.9 µM.
